Measured values taken from PMC12019328, “Discovery of an ApoE4-targeted small-molecule SirT1 enhancer for the treatment of Alzheimer’s disease” (Scientific Reports, 2025).
Entries after “also recorded” stand apart in the source; their conditions may differ.

Legend:
[1] = tested on: SirT1 protein in N2a-E4 cells; experiment: SirT1 protein levels in N2a-E4 cells (AlphaLISA); type: cell-based, murine
Experimental: Relative SirT1 mRNA and protein enhancement by racemate DDL-214 and enantiomers DDL-218 and − 219 was determined in murine neuroblastoma cells stably transfected with ApoE4 (N2a-E4)[25]. All test compounds in DMSO were prepared at 2x the final concentration in DMEM supplemented with 10% fetal bovine serum (FBS) and 1% pen-strep (PS) and 50 µL of each loaded into individual wells of a 96-well plate. Previously cultured N2a-E4 were then trypsinized, harvested, centrifuged, and counted; then 50 µL of cell suspension adjusted to 400 cells/µL was added to each well. The plate was then incubated at 37 °C, 5% CO2 for 48 h. Cells were treated with DDL-214, DDL-218, or DDL-219 at 5 µM final then incubated for 24 h. After incubation, the cells were lysed with 50 µL of ice-cold lysis buffer (0.4% SDS, 3.5% Triton X-100, 0.02% sodium deoxycholate, 28 mM TRIS pH 8) complemented with 1X final Halt™ Protease and Phosphatase Inhibitor Cocktail (Thermo Fisher catalog # 78442), placed on ice for 10 min and at -80 °C, followed by 3 freeze/thaw cycles.
An AlphaLISA comprising streptavidin donor beads (Revvity catalog # 6760002 S), biotinylated anti-SirT1 N-terminal antibody (monoclonal 19A7AB4, Abcam catalog # ab110304), and acceptor beads (Revvity catalog # 6772001) conjugated to the anti-SirT1 C-terminal antibody (monoclonal 1F3, Abcam catalog # ab104833) was used to determine SirT1 protein levels. […] The plates were read using an Envision plate reader.
Figure S3B. […] Compound treatment was done at 5 and 50 µM. SirT1 levels were measured by AlphaLISA followed and normalized to protein […]
Brain tissue was homogenized in PBS (pH 7.4) (1: 3 weight(mg)/volume(µL)) and the protein concentration of was determined using the Micro BCA™ Protein Assay Kit (Thermo Fisher Scientific, Cat#23235). […]
The % of the unbound drug (fu,bound) was calculated using the following equation: fu,bound = [normalized peak area in buffer side / normalized peak area in brain side] x 100 Liver Microsome Stability [t1/2 (min)] […]

[2] = tested on: SirT1 mRNA in Kelly cells; experiment: SirT1 mRNA in Kelly neuroblastoma cells; type: cell-based, human; conditions: 5 µM, 24 h, vs DMSO control
Experimental: Human neuroblastoma ‘Kelly’ cells (genotype APOE3/APOE4) were plated in 96-well plates at 50K cells per well and were grown overnight in RPMI 1640 supplemented with 2 mM Glutamine, 10% FBS and 1% Pen-Strep. Cells were treated with 5 µM DDL-214, -218, or -219; or DMSO vehicle (n = 8 per compound). Twenty-four hours later, medium was removed, cells washed and lysed as described above for N2a-E4 cells.
(§1) Total RNA was isolated from cells or brain tissue (Qiagen RNEasy kit). Total RNA (0.5–1.0 µg) mRNA was then converted to cDNA (SuperScript™ III First-Strand Synthesis SuperMix kit; Thermo Fisher), and gene mRNA levels were measured using a gene-specific qRT-PCR Taqman assays (Thermo Fisher). Gene mRNA levels were normalized to GAPDH mRNA levels measured either in the same cDNA sample or in the same qPCR reaction using multiplexing of gene-of-interest/VIC and GAPDH/FAM, normalized by the delta-delta-Ct method.

PRMT5 mRNA = experiment: Hippocampal PRMT5 mRNA in ApoE4-TR:5xFAD mice; type: in vivo; conditions: 20 mg/Kg BID, 56 days, vs vehicle
Experimental: The active (-) enantiomer, DDL-218, underwent efficacy testing in ApoE4-TR:5xFAD mice[27] that were 6-7.5 months old at the start of treatment. ApoE4-TR:5xFAD male and female mice received either 20 mg/Kg DDL-218 BID (~ 8- to10-hour interval; total daily dose of 40 mkd) on weekdays and a single 40 mg/Kg dose on weekends (n = 12) or vehicle-only (n = 11); 8 C57BL/6 mice received vehicle-only as behavioral controls. Dosing was by the oral route and by oral feeding using a pipette as previously described, not gavage, as it is safer for repeated oral dosing than gavage. The dose of 20 mg/kg BID (40 mkd) was selected based on findings from PK analysis and was the highest feasible in the formulation used for oral feeding (compound is first solubilized in water, then mixed strawberry syrup diluted in water, for a final vehicle that is 25% syrup and 75% water). […]
as §1

Row | Compound | SirT1 protein levels ([1]; N2a-E4 cells, 5 µM, 24 h, vs DMSO control) | SirT1 mRNA [2] | hippocampal PRMT5 mRNA (PRMT5 mRNA) | SirT1 increase over vehicle ([1]; 50 uM in N2a-E4 cells)
1 | CC(N)C(=O)OC(C)(C)Cc1ccncc1 (stereo not shown) [DDL-218] | greatest increase in SirT1 protein | greatest increase; also recorded: significantly increased SirT1 mRNA | significantly increased | –
2 | C#Cc1ccc(CC(C)(C)NC(=O)[C@H](C)N)cc1 [DDL-220] | – | – | – | 30%
